Source: USRE38090E1, “3′-substituted nucleoside derivative” (Taiho Pharmaceutical Co., Ltd., priority 1994, dated 2003)
In brackets after ≈: the same amount, converted by molar mass. Structures can show the parent of a compound that is named as a salt.

Assays:
[1] = test system: Human KB cells; assay: Cytotoxicity, MTT method; assay type: cell-based; settings: 72 h, 3 days at 37° C., read-out: IC50 (concentration at which the number of cells was decreased by 50%)
Experimental: Human KB cells were spread in a proportion of 1×10^5 cells/well on a 96-well plate. After a compound according to the present invention was dissolved in purified water, the solution was diluted to various concentrations with an RPMI 1640 medium and then added to each well, thereby conducting culture. After incubating at 37° C. for 3 days in a 5% CO2-incubator, the number of cells was counted by an MTT method.
The cytotoxicity of each of the compounds tested was expressed by a concentration (IC50) of the compound at which the number of cells was decreased by 50% compared with a control.

[2] = test system: Murine Leukemia P388 cells; assay: Survival effect against murine leukemia P388; assay type: in vivo; settings: P388 implanted i.p. in female CDFI mice
Experimental: Survival effect against murine leukemia P388:
Murine Leukemia P388 cells (1×10^6 cells) were implanted intraperitoneally in three female CDFI mice (aged 8 weeks) per group. On the day subsequent to the implantation and the fifth day, test compounds at varied concentrations were administered intraperitoneally to their corresponding groups of mice. Average survival days of each group were determined to find a survival rate (T/C, %) in accordance with the following equation.

[3] = dose 1 mg/kg i.p. on day 1 and day 5
[4] = dose 3 mg/kg i.p. on day 1 and day 5

Row | SMILES | melting point | also measured
1 | C[Si](C)(C)C#C[C@@]1(O)[C@@H](CO)O[C@@H](n2ccc(=O)[nH]c2=O)[C@@H]1O [Compound 35, 1-(3-C-trimethylsilylethynyl-β-D-ribofuranosyl)uracil] | 175 to 177 °C | IC50 [1]: 7.8 ng/mL (≈ 0.0229 µM)
2 | C#C[C@@]1(O)[C@@H](CO)O[C@@H](n2ccc(=O)[nH]c2=O)[C@@H]1O [Compound 7, 1-(3-C-ethynyl-β-D-ribofuranosyl) uracil] | – | IC50 [1]: 7.7 ng/mL (≈ 0.0287 µM); survival rate T/C (%) [2, 3]: 144%; survival rate T/C (%) [2, 4]: 150%
3 | C#C[C@@]1(O)[C@@H](CO)O[C@@H](n2cc(F)c(N)nc2=O)[C@@H]1O [Compound 4, 1-(3-C-ethynyl-β-D-ribofuranosyl)-5-fluorocytosine] | 242 °C (dec.) | –
4 | C#C[C@@]1(O)[C@@H](CO)O[C@@H](n2c(=O)cc[nH]c2=O)[C@@H]1O [Compound 8, 3-(3-C-ethynyl-β-D-ribofuranosyl) uracil] | 255 °C (dec.) | –
5 | C#C[C@@]1(O)[C@@H](CO)O[C@@H](n2cc(C)c(=O)[nH]c2=O)[C@@H]1O [Compound 12, 1-(3-C-ethynyl-β-D-ribofuranosyl) thymine] | 113 to 118 °C | –
6 | C#C[C@@]1(O)[C@@H](CO)O[C@@H](n2cnc3c(=O)[nH]c(N)nc32)[C@@H]1O [Compound 16, 9-(3-C-ethynyl-β-D-ribofuranosyl) guanine] | 225 °C (dec.) | –
7 | CC[C@@]1(O)[C@@H](CO)O[C@@H](n2ccc(=O)[nH]c2=O)[C@@H]1O [Comparative compound 1, 1-(3-C-ethyl-β-D-ribofuranosyl)uracil, reference compound] | – | IC50 [1]: > 100000 ng/mL
8 | C#C[C@@]1(O)[C@@H](CO)O[C@@H](n2ccc(N)nc2=O)[C@@H]1O [Compound 2, 1-(3-C-ethynyl-β-D-ribofuranosyl) cytosine] | – | survival rate T/C (%) [2, 3]: 211%; survival rate T/C (%) [2, 4]: 206%

Second part, led by results:

Row | melting point | SMILES | also measured
9 | 181 to 184 °C | CCC#C[C@@]1(O)[C@@H](CO)O[C@@H](n2ccc(N)nc2=O)[C@@H]1O (as salt: salt) [Compound 20, 1-(3-C-(1-butynyl)-β-D-ribofuranosyl) cytosine] | –
10 | 211 to 213 °C | CC#C[C@@]1(O)[C@@H](CO)O[C@@H](n2ccc(=O)[nH]c2=O)[C@@H]1O [Compound 24, 1-(3-C-(1-propynyl)-β-D-ribofuranosyl)uracil] | –
11 | 219 to 222 °C | C=C[C@@]1(O)[C@@H](CO)O[C@@H](n2ccc(=O)[nH]c2=O)[C@@H]1O [Compound 28, 1-(3-C-ethenyl-β-D-ribofuranosyl) uracil] | –
12 | 162 to 165 °C | CC#C[C@@]1(O)[C@@H](CO)O[C@@H](n2ccc(N)nc2=O)[C@@H]1O (as salt: salt) [Compound 18, 1-(3-C-(1-propynyl)-β-D-ribofuranosyl)cytosine] | –
13 | 139 to 142 °C | CCC#C[C@@]1(O)[C@@H](CO)O[C@@H](n2ccc(=O)[nH]c2=O)[C@@H]1O [Compound 26, 1-(3-C-(1-butynyl)-β-D-ribofuranosyl) uracil] | –
14 | 194 to 197 °C | C=C[C@@]1(O)[C@@H](CO)O[C@@H](n2ccc(N)nc2=O)[C@@H]1O [Compound 22, 1-(3-C-ethenyl-β-D-ribofuranosyl) cytosine] | –
